The results in this text go back to patent US12319695B2, “Sulfonamide derivative with fused pyrimidine skeleton, having epidermal growth factor receptor mutation inhibitory effect” (HANMI PHARM. CO., LTD., priority 2018, dated 2025).

The test system of test [1] is PC9 EGFR del19/T790M/C797S cells. Put plainly: PC9 EGFR del19/T790M/C797S cell growth inhibition test (CellTiter-Glo, 72 hours). As to conditions: Homo sapiens, PC-9, PC9 cell line overexpressing EGFR del19/T790M/C797S. The format is cell-based. As to the method: For cell growth conditions, an RPMI Medium 1640 (1×) containing 10% FBS and 1% penicillin/straptomycin (Gibco BRL) was used.
Specifically, the cell line stored in a liquid nitrogen tank was taken out, rapidly dissolved at 37° C., and thereafter centrifuged to remove the cryopreservation medium. The recovered cell pellets were well mixed in a culture medium, put into a culture flask, and passaged under conditions of 37° C. and 5% carbon dioxide to stabilize the cells to logarithmic cell growth phase. Thereafter, cells were taken from the flask, centrifuged to remove the culture medium, washed with Dulbecco's phosphate buffered saline (DPBS), and then centrifuged again to remove DPBS, and then diluted with a culture medium to have 1×10^5 cells/ml. The diluted cells were dispensed into a 96-well plate at 100 μl per well. The compounds prepared in the above examples were each dissolved in 99.5% dimethylsulfoxide (hereinafter, DMSO, cell culture grade) to a concentration of 10 mM. The DMSO solution containing each compound was diluted with a culture medium to a concentration of 30 μM, and then tenfold serial dilution was used to prepare a solution diluted upto 0.3 nM (in order to reach a final DMSO concentration of 1% or less).
The cells treated with the test solution were cultured under conditions of 37° C. and 5% carbon dioxide for 72 hours. After the 96-well plate in which the cells were cultured was acclimated to room temperature for 30 minutes, CellTiter-Glo® Luminescent Cell Assay Reagent (CTG, Promega) was dispensed at 50 μl per well. After stabilizing luminescence signals for 10 minutes, the luminescence intensity was measured with a microplate reader.
Based on the measured value, a […] value of each compound, which is the concentration at which cell growth is inhibited by 50%, was calculated with respect to 100% of the value obtained by subtracting the initial cell density value of a well not treated with a test material from the final cell density value thereof. The GI50 value of each compound was calculated using nonlinear regression of GraphPad Prism; log[inhibitor] vs. normalized response analysis.

In test [2] the test system is Ba/F3 EGFR del19/T790M/C797S cells. Briefly: Ba/F3 EGFR del19/T790M/C797S cell growth inhibition test (CellTiter-Glo, 72 hours).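 Further: compounds tested in tenfold steps from 10 µM down to 0.1 nM, with luminescence read on a microplate reader.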 The format is cell-based. As to conditions: Ba/F3 cell line overexpressing EGFR del19/T790M/C797S, 72 hours, CellTiter-Glo; read-out: Ba/F3 EGFR del19/T790M/C797S cells, GI50. Background: In ATP-based viability assays light output follows the ATP content of the culture.
Procedure: Specifically, the cell line stored in a liquid nitrogen tank was taken out, rapidly dissolved at 37° C., and thereafter centrifuged to remove the cryopreservation medium. The recovered cell pellets were well mixed in a culture medium, put into a culture flask, and passaged under conditions of 37° C. and 5% carbon dioxide to stabilize the cells to the logarithmic growth phase. Thereafter, cells were taken from the flask, centrifuged to remove the culture medium, washed with Dulbecco's phosphate buffered saline (DPBS), and then centrifuged again to remove DPBS, and then diluted with a culture medium to have 1×10^5 cells/ml. The diluted cells were dispensed into a 96-well plate at 100 μl per well. […] The DMSO solution containing each compound was diluted with a culture medium to a concentration of 30 μM, and then tenfold serial dilution was used to prepare a solution diluted upto 0.3 nM (in order to reach a final DMSO concentration of 1% or less).
50 μl of a test solution of each compound was added each time to the 96-well plate in which the cells were dispensed, thus reaching a final concentration of 10 μM to 0.1 nM in 150 μl per well. The cells treated with the test solution were cultured under conditions of 37° C. and 5% carbon dioxide for 72 hours. After the 96-well plate in which the cells were cultured was acclimated to room temperature for 30 minutes, CellTiter-Glo® Luminescent Cell Assay Reagent (CTG, Promega) was dispensed at 50 μl per well. After stabilizing luminescence signals for 10 minutes, the luminescence intensity was measured with a microplate reader.

The target in a further test is T1, EGFR L858R/T790M/C797S (Homo sapiens, UniProt P00533, C797S/L858R/T790M).
T1 construct: purchased Thermo Fisher Scientific Inc
T1 sequence (P00533 25-1210 T790M/C797S/L858R): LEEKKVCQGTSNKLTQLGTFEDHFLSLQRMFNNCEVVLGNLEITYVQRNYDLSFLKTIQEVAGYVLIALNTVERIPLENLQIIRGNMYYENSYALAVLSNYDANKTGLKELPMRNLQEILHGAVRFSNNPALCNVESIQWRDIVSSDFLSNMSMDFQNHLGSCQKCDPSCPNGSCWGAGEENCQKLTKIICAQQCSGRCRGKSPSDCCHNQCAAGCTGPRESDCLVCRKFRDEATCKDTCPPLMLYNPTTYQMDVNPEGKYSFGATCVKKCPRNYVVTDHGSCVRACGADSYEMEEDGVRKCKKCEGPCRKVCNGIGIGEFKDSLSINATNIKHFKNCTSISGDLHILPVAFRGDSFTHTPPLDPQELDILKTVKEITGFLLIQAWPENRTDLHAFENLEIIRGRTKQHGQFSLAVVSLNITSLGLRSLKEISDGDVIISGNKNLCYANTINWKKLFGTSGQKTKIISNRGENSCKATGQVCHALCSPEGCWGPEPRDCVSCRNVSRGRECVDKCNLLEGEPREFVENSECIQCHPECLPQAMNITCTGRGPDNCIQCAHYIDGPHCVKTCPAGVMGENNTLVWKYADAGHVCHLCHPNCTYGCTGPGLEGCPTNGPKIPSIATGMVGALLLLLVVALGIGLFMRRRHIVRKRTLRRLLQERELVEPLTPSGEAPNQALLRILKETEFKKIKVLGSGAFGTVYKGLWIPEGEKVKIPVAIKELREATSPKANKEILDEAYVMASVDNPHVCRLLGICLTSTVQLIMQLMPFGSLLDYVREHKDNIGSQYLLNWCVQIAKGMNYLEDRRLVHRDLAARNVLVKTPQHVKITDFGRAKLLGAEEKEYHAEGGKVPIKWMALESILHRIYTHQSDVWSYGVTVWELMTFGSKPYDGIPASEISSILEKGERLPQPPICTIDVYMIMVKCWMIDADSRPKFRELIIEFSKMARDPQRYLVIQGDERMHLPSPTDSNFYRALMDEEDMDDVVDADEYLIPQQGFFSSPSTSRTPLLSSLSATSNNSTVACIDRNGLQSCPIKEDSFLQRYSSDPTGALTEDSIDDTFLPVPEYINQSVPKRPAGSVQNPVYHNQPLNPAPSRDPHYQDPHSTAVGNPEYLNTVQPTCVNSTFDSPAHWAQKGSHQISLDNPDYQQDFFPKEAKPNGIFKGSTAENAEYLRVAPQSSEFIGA
Briefly: EGFR enzyme inhibitory activity evaluation (Z'-LYTE kinase assay), L858R/T790M/C797S. It is filed as biochemical.

The next test deals with T2, EGFR T790M/L858R (Homo sapiens, UniProt P00533, L858R/T790M).
T2 construct: purchased Thermo Fisher Scientific Inc
T2 sequence (P00533 25-1210 T790M/L858R): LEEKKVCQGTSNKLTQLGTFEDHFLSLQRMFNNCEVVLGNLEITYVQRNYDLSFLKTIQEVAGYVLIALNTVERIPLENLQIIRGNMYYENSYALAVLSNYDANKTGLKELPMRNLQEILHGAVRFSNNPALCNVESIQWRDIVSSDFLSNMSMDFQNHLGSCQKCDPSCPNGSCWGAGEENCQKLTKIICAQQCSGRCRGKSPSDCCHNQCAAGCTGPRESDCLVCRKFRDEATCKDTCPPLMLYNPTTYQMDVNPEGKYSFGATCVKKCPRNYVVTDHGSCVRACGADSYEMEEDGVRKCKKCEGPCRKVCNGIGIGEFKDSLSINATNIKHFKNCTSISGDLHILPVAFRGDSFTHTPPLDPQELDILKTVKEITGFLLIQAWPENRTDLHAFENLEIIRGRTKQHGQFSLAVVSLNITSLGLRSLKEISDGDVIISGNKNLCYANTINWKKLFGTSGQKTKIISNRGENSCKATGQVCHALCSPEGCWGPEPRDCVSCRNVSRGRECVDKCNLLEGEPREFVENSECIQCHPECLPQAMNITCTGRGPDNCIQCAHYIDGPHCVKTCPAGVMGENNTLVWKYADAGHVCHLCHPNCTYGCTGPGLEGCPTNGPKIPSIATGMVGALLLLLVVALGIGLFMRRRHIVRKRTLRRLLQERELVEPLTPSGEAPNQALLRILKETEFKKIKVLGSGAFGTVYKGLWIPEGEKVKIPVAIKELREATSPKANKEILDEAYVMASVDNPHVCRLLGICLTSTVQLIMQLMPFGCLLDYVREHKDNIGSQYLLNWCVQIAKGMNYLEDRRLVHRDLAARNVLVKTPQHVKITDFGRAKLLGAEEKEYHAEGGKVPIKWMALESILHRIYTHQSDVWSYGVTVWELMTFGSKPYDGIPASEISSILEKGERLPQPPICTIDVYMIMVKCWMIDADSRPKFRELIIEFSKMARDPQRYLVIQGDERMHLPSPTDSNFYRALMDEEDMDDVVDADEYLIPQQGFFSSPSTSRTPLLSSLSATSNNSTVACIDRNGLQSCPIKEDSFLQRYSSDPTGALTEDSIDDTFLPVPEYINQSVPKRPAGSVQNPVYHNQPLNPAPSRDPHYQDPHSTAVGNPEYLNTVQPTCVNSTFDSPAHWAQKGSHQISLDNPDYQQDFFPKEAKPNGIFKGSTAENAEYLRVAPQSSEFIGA
Put plainly: EGFR enzyme inhibitory activity evaluation (Z'-LYTE kinase assay), T790M/L858R. The format is biochemical.

The target of another test is T3, EGFR WT (Homo sapiens, UniProt P00533).
T3 construct: purchased Thermo Fisher Scientific Inc
T3 sequence (P00533 25-1210): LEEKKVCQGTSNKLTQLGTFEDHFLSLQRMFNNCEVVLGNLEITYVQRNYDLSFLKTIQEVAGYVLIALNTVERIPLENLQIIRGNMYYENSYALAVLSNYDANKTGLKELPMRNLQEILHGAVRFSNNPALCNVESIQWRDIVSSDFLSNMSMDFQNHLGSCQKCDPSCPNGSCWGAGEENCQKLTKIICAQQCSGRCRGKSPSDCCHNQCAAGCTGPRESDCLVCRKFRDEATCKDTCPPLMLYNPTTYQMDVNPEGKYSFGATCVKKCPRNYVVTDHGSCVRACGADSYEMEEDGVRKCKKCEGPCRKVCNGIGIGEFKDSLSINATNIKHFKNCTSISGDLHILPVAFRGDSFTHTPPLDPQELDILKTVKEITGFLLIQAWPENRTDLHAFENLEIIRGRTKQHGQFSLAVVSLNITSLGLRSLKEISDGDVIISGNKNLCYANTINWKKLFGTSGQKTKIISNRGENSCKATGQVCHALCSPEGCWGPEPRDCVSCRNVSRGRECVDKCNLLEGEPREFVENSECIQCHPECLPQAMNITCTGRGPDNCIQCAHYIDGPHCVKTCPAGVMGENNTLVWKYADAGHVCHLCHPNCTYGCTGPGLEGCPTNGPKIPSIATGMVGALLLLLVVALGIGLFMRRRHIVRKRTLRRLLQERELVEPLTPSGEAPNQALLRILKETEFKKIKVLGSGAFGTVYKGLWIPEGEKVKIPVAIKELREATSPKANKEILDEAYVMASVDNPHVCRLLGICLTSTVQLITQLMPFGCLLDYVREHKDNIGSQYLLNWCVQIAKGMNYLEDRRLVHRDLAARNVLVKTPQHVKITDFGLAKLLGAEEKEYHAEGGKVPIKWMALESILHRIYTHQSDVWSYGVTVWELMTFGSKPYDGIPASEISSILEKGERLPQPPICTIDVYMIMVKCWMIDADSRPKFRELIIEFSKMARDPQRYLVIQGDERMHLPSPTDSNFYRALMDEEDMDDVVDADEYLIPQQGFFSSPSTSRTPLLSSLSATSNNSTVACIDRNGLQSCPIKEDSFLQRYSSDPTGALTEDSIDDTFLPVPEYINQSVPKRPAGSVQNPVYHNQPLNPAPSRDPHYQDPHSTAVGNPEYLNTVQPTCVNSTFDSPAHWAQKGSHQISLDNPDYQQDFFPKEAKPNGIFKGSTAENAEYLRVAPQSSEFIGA
Briefly: EGFR enzyme inhibitory activity evaluation (Z'-LYTE kinase assay), WT. The format is biochemical.

Procedure for EGFR L858R/T790M/C797S: (§1) For this, a Z′-LYTE kinase assay kit (ThermoFisher Scientific, PV3191) was used, and the kinases used were purchased from Thermo Fisher Scientific Inc. A simple test method is summarized as follows.
(§2) Each kinase was diluted to a concentration of 7-45 ng/assay using a kinase buffer (50 mM HEPES (pH 7.5), 10 mM MgCl2, 4 mM MnCl2, 2 mM DTT, 1 mM EGTA, 0.01% BRIJ-35, or 50 mM HEPES (pH 6.5), 10 mM MgCl2, 1 mM EGTA, 0.01% BRIJ-35, 0.02% NaN3). The test was performed on 384 well plates (well polystyrene flat-bottomed plates). First, after 5 μl of a diluted compound solution was added, a protein substrate at a concentration as specified in the kit, 10 μl of a kinase mixed solution, and 5 μl of a 10-100 μM ATP solution were added to the sample and reacted at room temperature for 60 minutes in a stirrer. Thereafter, 10 μl of a coloring solution was added each to cause a fluorescence reaction of the peptide substrate for 60 minutes, and 10 μl of a stopping solution was added each to terminate the reaction.
Procedure for EGFR T790M/L858R: as §1, §2
Procedure for EGFR WT: as §1, §2

Compound `CCN1CCN(C2CCN(c3ccc(Nc4nc(Nc5ccccc5N(C)S(=O)(=O)CC)c5cc[nH]c5n4)cc3F)CC2)CC1` [Example 54, N-(2-((2-((4-(4-(4-ethylpiperazin-1-yl)piperidin-1-yl)-3-fluorophenyl)amino)-7H-pyrrolo[2,3-d]pyrimidine-4-yl)amino)phenyl)-N-methylethanesulfonamide] registered a GI50 in test [1] of 530 nM.

One may read the IC50 as the point on the concentration scale where inhibition reaches its midpoint. Low readings indicate greater potency, high ones weaker potency. Take `CCN1CCN(C2CCN(c3ccc(Nc4nc(Nc5ccccc5N(C)S(C)(=O)=O)c5cc[nH]c5n4)cc3F)CC2)CC1` [Example 14, N-(2-((2-((3-fluoro-4-(4-(4-ethylpiperazin-1-yl)piperidin-1-yl)phenyl)amino)-7H-pyrrolo[2,3-d]pyrimidine-4-yl)amino)phenyl)-N-methylmethanesulfonamide]: the GI50 came to 15 nM in test [2] and 126 nM in test [1]. For the same compound, the figures for the IC50 at EGFR L858R/T790M/C797S, against EGFR T790M/L858R and against EGFR WT were 4 nM, 2.9 nM and 4490 nM, respectively. With `CCCN1CCN(C2CCN(c3ccc(Nc4nc(Nc5ccccc5N(C)S(C)(=O)=O)c5cc[nH]c5n4)cc3F)CC2)CC1` [Example 16, N-(2-((2-((3-fluoro-4-(4-(4-propylpiperazin-1-yl)piperidin-1-yl)phenyl)amino)-7H-pyrrolo[2,3-d]pyrimidine-4-yl)amino)phenyl)-N-methylmethanesulfonamide], the GI50 in test [1] was found to be 160 nM. For the same compound, the IC50 stood at 4 nM at EGFR L858R/T790M/C797S, 2.7 nM against EGFR T790M/L858R and 1530 nM at EGFR WT. `CC(C)N1CCN(C2CCN(c3ccc(Nc4nc(Nc5ccccc5N(C)S(C)(=O)=O)c5cc[nH]c5n4)cc3F)CC2)CC1` [Example 15, N-(2-((2-((3-fluoro-4-(4-(4-isopropylpiperazin-1-yl)piperidin-1-yl)phenyl)amino)-7H-pyrrolo[2,3-d]pyrimidine-4-yl)amino)phenyl)-N-methylmethanesulfonamide]: the GI50 in test [1] is 131 nM. `CCN1CCN(c2ccc(Nc3nc(Nc4ccccc4N(C)S(C)(=O)=O)c4cc[nH]c4n3)cc2F)CC1` [Example 8, N-(2-((2-((3-fluoro-4-(4-ethylpiperazin-1-yl)phenyl)amino)-7H-pyrrolo[2,3-d]pyrimidine-4-yl)amino)phenyl)-N-methylmethanesulfonamide]: the GI50 in test [2] stood at 10 nM; in test [1] it was 201 nM. As for `CN(c1ccccc1Nc1nc(Nc2ccc(N3CCC(N4CCN(C5CC5)CC4)CC3)c(F)c2)nc2[nH]ccc12)S(C)(=O)=O` [Example 17, N-(2-((2-((3-fluoro-4-(4-(4-cyclopropylpiperazin-1-yl)piperidin-1-yl)phenyl)amino)-7H-pyrrolo[2,3-d]pyrimidine-4-yl)amino)phenyl)-N-methylmethanesulfonamide], the GI50 in test [1] was determined as 311 nM. Turning to `CN1CCN(C2CCN(c3ccc(Nc4nc(Nc5ccccc5N(C)S(C)(=O)=O)c5ccn(C)c5n4)cc3F)CC2)CC1` [Example 65, N-(2-((2-((3-fluoro-4-(4-(4-methylpiperazin-1-yl)piperidin-1-yl)phenyl)amino)-7-methyl-7H-pyrrolo[2,3-d]pyrimidine-4-yl)amino)phenyl)-N-methylmethanesulfonamide], the GI50 in test [1] worked out at 3380 nM.

Turning to `CCCN1CCN(c2ccc(Nc3nc(Nc4ccccc4N(C)S(C)(=O)=O)c4cc[nH]c4n3)cc2F)CC1` [Example 10, N-(2-((2-((3-fluoro-4-(4-propylpiperazin-1-yl)phenyl)amino)-7H-pyrrolo[2,3-d]pyrimidine-4-yl)amino)phenyl)-N-methylmethanesulfonamide], the GI50 in test [1] is 538 nM. On the same count and under the same terms, for `CC(C)N1CCN(c2ccc(Nc3nc(Nc4ccccc4N(C)S(C)(=O)=O)c4cc[nH]c4n3)cc2F)CC1` [Example 9, N-(2-((2-((3-fluoro-4-(4-isopropylpiperazin-1-yl)phenyl)amino)-7H-pyrrolo[2,3-d]pyrimidine-4-yl)amino)phenyl)-N-methylmethanesulfonamide] the value was 420 nM; for `CN(c1ccccc1Nc1nc(Nc2ccc(N3CCN(C4CC4)CC3)c(F)c2)nc2[nH]ccc12)S(C)(=O)=O` [Example 11, N-(2-((2-((3-fluoro-4-(4-cyclopropylpiperazin-1-yl)phenyl)amino)-7H-pyrrolo[2,3-d]pyrimidine-4-yl)amino)phenyl)-N-methylmethanesulfonamide], 641 nM. On the same count and under the same terms, for `CCN1CCC2(CCN(c3ccc(Nc4nc(Nc5ccccc5N(C)S(=O)(=O)CC)c5cc[nH]c5n4)cc3F)CC2)C1` [Example 56, N-(2-((2-((4-(2-ethyl-2,8-diazaspiro[4.5]decan-8-yl)-3-fluorophenyl)amino)-7H-pyrrolo[2,3-d]pyrimidine-4-yl)amino)phenyl)-N-methylethanesulfonamide] the value was 564 nM.

For the compound `CN1CCN(C2CCN(c3ccc(Nc4nc(Nc5ccccc5N(C)S(C)(=O)=O)c5cc[nH]c5n4)cc3F)CC2)CC1` [Example 13, N-(2-((2-((3-fluoro-4-(4-(4-methylpiperazin-1-yl)piperidin-1-yl)phenyl)amino)-7H-pyrrolo[2,3-d]pyrimidine-4-yl)amino)phenyl)-N-methylmethanesulfonamide], the GI50 in test [2] stood at 11 nM; in test [1], 267 nM. With `CCN1CCN(C2CCN(c3ccc(Nc4nc(Nc5ccccc5NS(C)(=O)=O)c5cc[nH]c5n4)cc3F)CC2)CC1` [Example 53, N-(2-((2-((4-(4-(4-ethylpiperazin-1-yl)piperidin-1-yl)-3-fluorophenyl)amino)-7H-pyrrolo[2,3-d]pyrimidine-4-yl)amino)phenyl)methanesulfonamide], the GI50 turned out to be 7 nM in test [2] and 698 nM in test [1]. On to `CCN1CCN(c2c(F)cc(Nc3nc(Nc4ccccc4N(C)S(C)(=O)=O)c4cc[nH]c4n3)cc2F)CC1` [Example 26, N-(2-((2-((4-(4-ethylpiperazin-1-yl)-3,5-difluorophenyl)amino)-7H-pyrrolo[2,3-d]pyrimidine-4-yl)amino)phenyl)-N-methylmethanesulfonamide], for which the GI50 in test [1] was 369 nM. Same read-out and setting: for `CCN1CCN(c2ccc(Nc3nc(Nc4ccccc4NS(C)(=O)=O)c4cc[nH]c4n3)cc2F)CC1` [Example 49, N-(2-((2-((4-(4-ethylpiperazin-1-yl)-3-fluorophenyl)amino)-7H-pyrrolo[2,3-d]pyrimidine-4-yl)amino)phenyl)methanesulfonamide] the value was 858 nM. As for `CN1CC2(C1)CN(c1ccc(Nc3nc(Nc4ccccc4N(C)S(C)(=O)=O)c4cc[nH]c4n3)cc1F)C2` [Example 36, N-(2-((2-((3-fluoro-4-(6-methyl-2,6-diazaspiro[3.3]heptan-2-yl)phenyl)amino)-7H-pyrrolo[2,3-d]pyrimidine-4-yl)amino)phenyl)-N-methylmethanesulfonamide], in test [2], the GI50 came out at 20 nM. Besides, the results for the IC50 at EGFR L858R/T790M/C797S, against EGFR T790M/L858R and on EGFR WT were 13 nM, 12 nM and 2180 nM, respectively.

`CN1CCN(c2ccc(Nc3nc(Nc4ccccc4NS(C)(=O)=O)c4cc[nH]c4n3)cc2F)CC1` [Example 42, N-(2-((2-((3-fluoro-4-(4-methylpiperazin-1-yl)phenyl)amino)-7H-pyrrolo[2,3-d]pyrimidine-4-yl)amino)phenyl)methanesulfonamide]: the GI50 in test [2] turned out to be 123 nM; in test [1], 951 nM.
